Data taken from patent US6806267B1, “Apoptosis-inducing compounds” (priority 1998, dated 2004).
Where two headings read alike, the source gives them in different places.

Tests used:
Type in all cases: cell-based, human
[1] = test system: normal bone marrow progenitor cells; conditions: 10 μM, 72 hours; for colonies scored, mean of 10 normal bone marrow samples: colonies scored after 14 days
Experimental: Bone Marrow samples from donor patients were suspended in RPMI and heparin. Approximately 5 mls of Lympoprep was poured into a sterilin and the bone marrow sample was gently layered on top. The sample was centrifuged at 1800 g for 25 min, brake at 2. Following centrifugation, the buffy coat layer which contained the mononucleur fraction was gently removed using a sterile pasteur pipette and was transferred to a fresh tube. Approximately 10 mls of RPMI was added and the sample was centrifuged at 1800 g for 10 minutes, brake at 9. The supernatant was removed and the wash repeated. The pellet was resuspended in approximately 2 mls of RPMI. 20 μl was removed from the sample, mixed with 380 μl of ethidium bromide/acridine orange mix.(each at 100 μg/ml in PBS, 1:1 v/v). Ethidium bromide and acridine orange are fluorescent dyes which bind DNA. Acridine orange intercalates into DNA giving it a green appearance. Ethidium bromide is taken up by non-viable cells only. This dye also intercalates into the DNA, making it appear orange. The cells were counted under a fluorescent microscope and the volume of cells was adjusted to obtain 4×10^6 cells per ml. Cells were divided into 2 flasks and treated with 0.5% (v/v) ethanol or 10 μM PBOX-6. 100 μl was taken from each flask and added to 1.9 mls of culture media (0.58 ml methylcellulose, 0.55 ml FCS, 0.18 ml BSA, 0.21 ml RPMI, 5 U/ml of granulocytoe monocyte-colony stimulating factor (GM-CSF) and 20 U/ml of erythropoietin (EPO). Tubes were mixed by vortexing and allowed to stand for 1 min before adding 0.5 ml into each of three wells of a 4 well dish. 0.5 ml of sterile water was added to the fourth well. Plates were incubated at 37° C. for 14 days. After 14 days, colonies were scored. A colony is scored as a cluster containing >40 cells, which originates form one stem cell. […]

[2] = test system: CML cell lines K562, KYO.1 and Lama 84; assay: Apoptosis in CML cell lines, cytospin and staining; conditions: 24 hours (10 μM elsewhere in the source)
[3] = test system: PARP (poly ADP-ribose polymerase); assay: Western blot of PARP cleavage in CML cells
Experimental: CML cells were seeded at 2×10^6 cells in 5 mls of growth medium, and treated with 10 μM PBOX-6 for 16 and 24 hr. Hela cells were seeded at 1×10^6 cells per 25 cm^2 flask. Following a 24 hour incubation, the cells were treated with PBOX-3 for a further 48 hours and the cells were scraped up. Cells were then centrifuged at 500 g for 5 min, the supernatant was removed and the pellet was resuspended in 200 μl of PARP sample buffer (62.5 mM Tris/HCl pH 6.8, 6 M urea, 10% (w/v) glycerol, 2% (w/v) SDS, 0.00125% bromophenol blue, and 5% (v/v) β-mercaptoethanol was added immediately before use). Samples were sonicated for 15 sec before aliquoting into 15 μl volumes. Samples were stored at −20° C. until use. 10-15 μl of thawed samples were resolved directly on a 10% polyacrylamide gel and transferred onto PVDF membrane at room temperature using wet transfer apparatus. After transfer, the membrane was blocked overnight in PBS containing 5% dry milk (Marvel). After blocking, the membrane was washed in PBST for 2×2 minutes before incubating for 1 hr with anti-PARP antibody (2 μg/ml in PBST containing 1% dry milk). Following incubation the membrane was washed for 20 minutes in PBST and incubated with goat anti mouse HRP conjugated secondary antibody (1:1000 dilution in PBST containing 1% dry milk). After washing in PBST for 30 minutes, ECL was used to visualise the proteins. […]

[4] = test system: caspase 3-like proteases; conditions: HL-60 cells
Experimental: (§1) Cells (5×10^6 cells) were harvested by centrifugation, washing in ice-cold phosphate-buffered saline and the pellets resuspended in 200 μl of harvesting buffer (20 mM Hepes, pH 7.5, 10% (w/v) sucrose, 0.1% (w/v) CHAPS, 2 mM dithiotreitol, 0.1% (v/v) Nonidet NP40, 1 mM sodium EDTA and 1 mM phenylmethylsulfonyl fluoride) supplemented with protease inhibitors (1 μg/ml pepstatin A and 1 μg/ml leupeptin). Following incubation on ice for 10 min, samples were passed up and down 10 times through a 21 gauge needle. Following a further incubation on ice for 10 min the homogenates were centrifuged at 20,000 g for 20 min and the resulting supernatants used to measure caspase 3 activity. This enzyme activity was determined by a fluorometric assay using the substrate Ac-DEVD-AMC, which is cleaved by caspase 3 to release the fluorescent leaving group, amino-4-methyl coumarin (AMC). Enzyme extracts (50 μg) were incubated with 100 mM Hepes, pH 7.5, containing 10% (w/v) sucrose, 0.1% (w/v) CHAPS, 10 mM dithiotreitol and 20 μM substrate in a total reaction volume of 3 ml. Following incubation for 60 min at 25° C., fluorescence was monitored continuously using a spectrofluorimeter (excitation wavelength 380 nm, emission wavelength 460 nm). The amount of AMC released was determined by comparison with a standard curve generated with known amounts of AMC.

[5] = test system: caspase 3
Experimental: as §1

[6] = test system: JNK1 and JNK2; assay: Western blot of JNK activation in HL-60 cells
[7] = test system: CML cell lines K562, KYO.1 and Lama 84; assay: Agarose gel electrophoresis of DNA ladders, CML cells; conditions: all three CML cell lines

## CN(C)C(=O)OC1=C(c2cccc3ccccc23)Oc2ccccc2-n2cccc21 [PBOX-6, 7-((Dimethylcarbamoyl)oxy)-6-(1-naphthyl)pyrrolo[2,1-d][1,5]benzoxazepine]
[1]
  effect on normal bone marrow progenitor cells: no significant effect
  colonies scored, mean of 10 normal bone marrow samples: 17
[1]; listed as PBOX 6
  colonies scored, mean of 10 normal bone marrow samples: 16.9
[2]
  cells that had undergone apoptosis: approximately 50%
[3]; K562 24 hours, Lama 84 16 hours
  PARP cleavage: PARP cleavage occurs
[3]; KYO.1 cells, 24 hours
  PARP cleavage: result in PARP cleavage
[4]
  time at which caspase 3-like protease activity became evident: 6 h
[4]; DEVD-AMC substrate
  activation of caspase 3-like proteases: dose-dependent activation of caspase 3-like proteases
[5]; K562 and Lama 84, 16 hours
  caspase 3 activation: activated
[5]; KYO.1 cells
  caspase 3 activation: not detected
[6]
  activation of JNK: transient activation of 2 JNK isoforms
  time of peak JNK activation: 1 h
[7]
  internucleosomal DNA fragmentation (DNA ladders): DNA laddering pattern was visible
